# Where a name gives a salt, the structure may show the parent alone.
# Columns and labels:
# Type in all cases: biochemical
# human FGFR1 = molecular target: T1, human FGFR1 (Homo sapiens, UniProt P11362); assay: 33P isotope-labeled kinase activity test, FGFR1; conditions: ATP 5 μM
# T1 construct: purchased Invitrogen PV3146
# Experimental: (§1) The inhibitory activities of the tested compounds on human FGFR1, FGFR4, and c-Met were evaluated by the IC50 values measured using ^33P isotope-labeled kinase activity test (Reaction Biology Corp).
# (§2) Buffer condition: 20 mM Hepes (pH 7.5), 10 mM MgCl2, 1 mM EGTA, 0.02% Brij35, 0.02 mg/mL BSA, 0.1 mM Na3VO4, 2 mM DTT, 1% DMSO.
# Test procedure: The test compounds were dissolved in DMSO at room temperature and formulated to be 10 mM solutions for later use. The substrates were dissolved in freshly prepared buffer, and kinases to be tested were added and mixed well. The test compounds dissolved in DMSO were added to the above mixed reaction solutions by acoustic technique (Echo 550). […] After incubation for 15 min, ^33P-ATP (activity 0.01 μCi/μL, corresponding concentrations are listed in Table 1) was added to start the reaction. Supplier item number, batch number, as well as the concentration information in the reaction solution of FGFR1, FGFR4, c-Met and substrates thereof are listed in Table 1. […] The kinase activity data are expressed by comparison between the kinase activity in the test compound group and the kinase activity in the blank group (containing DMSO only). IC50 values were obtained by curve fitting with Prism4 software (GraphPad).
# human FGFR4 = molecular target: T2, human FGFR4 (Homo sapiens, UniProt P22455); assay: 33P isotope-labeled kinase activity test, FGFR4; conditions: ATP 100 μM
# T2 construct: purchased Invitrogen P3054
# T2 sequence (P22455 22-802): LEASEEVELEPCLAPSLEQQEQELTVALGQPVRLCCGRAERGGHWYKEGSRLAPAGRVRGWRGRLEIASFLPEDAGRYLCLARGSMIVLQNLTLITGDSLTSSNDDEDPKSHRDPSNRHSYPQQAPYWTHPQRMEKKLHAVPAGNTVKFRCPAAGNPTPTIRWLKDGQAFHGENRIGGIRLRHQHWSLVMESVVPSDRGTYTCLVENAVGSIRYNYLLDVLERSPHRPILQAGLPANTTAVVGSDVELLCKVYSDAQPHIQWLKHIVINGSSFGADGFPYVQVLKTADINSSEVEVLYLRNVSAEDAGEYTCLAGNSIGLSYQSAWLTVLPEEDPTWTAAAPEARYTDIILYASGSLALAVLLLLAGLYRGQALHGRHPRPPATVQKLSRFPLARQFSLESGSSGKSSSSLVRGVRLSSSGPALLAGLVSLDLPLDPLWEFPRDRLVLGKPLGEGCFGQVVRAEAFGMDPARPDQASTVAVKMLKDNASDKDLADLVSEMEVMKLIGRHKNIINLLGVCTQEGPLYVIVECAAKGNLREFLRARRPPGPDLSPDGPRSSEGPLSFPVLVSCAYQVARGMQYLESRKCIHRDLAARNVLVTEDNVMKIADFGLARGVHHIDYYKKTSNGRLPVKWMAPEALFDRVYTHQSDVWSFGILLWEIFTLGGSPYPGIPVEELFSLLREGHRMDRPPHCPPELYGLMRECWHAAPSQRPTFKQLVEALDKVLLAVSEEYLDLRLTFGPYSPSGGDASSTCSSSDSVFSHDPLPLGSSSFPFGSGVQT
# Experimental: as §1, §2
# (§3) Test procedure: The test compounds were dissolved in DMSO at room temperature and formulated to be 10 mM solutions for later use. The substrates were dissolved in freshly prepared buffer, and kinases to be tested were added and mixed well. The test compounds dissolved in DMSO were added to the above mixed reaction solutions by acoustic technique (Echo 550). The concentration of the compound in reaction solution was 1 μM, […], 3.91 nM, 0.977 nM, 0.244 nM, 0.061 nM, 0.0153 nM, 0.00381 nM or 10 μM, 2.50 μM, 0.62 μM, 0.156 μM, 39.1 nM, 9.8 nM, 2.4 nM, 0.61 nM, 0.15 nM, 0.038 nM. After incubation for 15 min, ^33P-ATP (activity 0.01 μCi/μL, corresponding concentrations are listed in Table 1) was added to start the reaction. Supplier item number, batch number, as well as the concentration information in the reaction solution of FGFR1, FGFR4, c-Met and substrates thereof are listed in Table 1. […] The kinase activity data are expressed by comparison between the kinase activity in the test compound group and the kinase activity in the blank group (containing DMSO only). IC50 values were obtained by curve fitting with Prism4 software (GraphPad).
# human c-Met = molecular target: T3, human c-Met (Homo sapiens, UniProt P08581); assay: 33P isotope-labeled kinase activity test, c-Met; conditions: ATP 10 μM
# T3 construct: purchased Invitrogen PV3143
# T3 sequence (P08581 25-1390): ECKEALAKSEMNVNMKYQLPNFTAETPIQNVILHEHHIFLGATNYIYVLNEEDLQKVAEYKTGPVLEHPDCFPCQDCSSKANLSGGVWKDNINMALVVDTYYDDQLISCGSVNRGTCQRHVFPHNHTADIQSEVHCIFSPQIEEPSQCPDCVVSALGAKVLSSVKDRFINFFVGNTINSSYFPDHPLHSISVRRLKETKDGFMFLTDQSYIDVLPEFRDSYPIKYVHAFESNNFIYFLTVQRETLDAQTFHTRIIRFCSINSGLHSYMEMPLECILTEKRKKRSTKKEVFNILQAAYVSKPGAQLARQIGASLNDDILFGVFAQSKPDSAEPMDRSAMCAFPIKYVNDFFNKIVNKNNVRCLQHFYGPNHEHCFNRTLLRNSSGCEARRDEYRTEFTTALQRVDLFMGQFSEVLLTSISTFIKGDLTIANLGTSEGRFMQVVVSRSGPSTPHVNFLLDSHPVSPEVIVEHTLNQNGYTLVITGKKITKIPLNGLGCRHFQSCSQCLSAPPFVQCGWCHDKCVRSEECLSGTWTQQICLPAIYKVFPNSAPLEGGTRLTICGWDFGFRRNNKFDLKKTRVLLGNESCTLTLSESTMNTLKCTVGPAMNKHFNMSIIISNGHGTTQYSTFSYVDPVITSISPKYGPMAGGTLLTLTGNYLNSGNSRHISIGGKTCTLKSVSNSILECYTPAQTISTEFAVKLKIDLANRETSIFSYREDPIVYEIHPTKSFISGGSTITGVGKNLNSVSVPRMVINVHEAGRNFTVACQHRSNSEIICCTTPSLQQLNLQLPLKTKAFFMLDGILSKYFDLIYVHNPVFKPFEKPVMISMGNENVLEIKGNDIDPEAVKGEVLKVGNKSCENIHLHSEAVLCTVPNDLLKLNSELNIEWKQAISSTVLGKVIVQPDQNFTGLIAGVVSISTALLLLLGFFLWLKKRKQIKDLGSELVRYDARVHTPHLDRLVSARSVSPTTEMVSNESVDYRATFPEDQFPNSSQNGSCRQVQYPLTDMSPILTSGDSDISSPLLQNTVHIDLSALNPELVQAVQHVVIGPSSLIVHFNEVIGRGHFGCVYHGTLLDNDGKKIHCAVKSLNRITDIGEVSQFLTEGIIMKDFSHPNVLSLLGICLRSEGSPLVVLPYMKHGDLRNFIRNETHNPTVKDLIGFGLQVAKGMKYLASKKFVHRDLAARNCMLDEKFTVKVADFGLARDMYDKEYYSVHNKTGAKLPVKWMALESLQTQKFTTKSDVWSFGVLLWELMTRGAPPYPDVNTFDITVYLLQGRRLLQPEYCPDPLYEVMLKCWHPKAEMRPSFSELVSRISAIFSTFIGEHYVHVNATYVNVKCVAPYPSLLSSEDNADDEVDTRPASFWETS
# Experimental: as §1, §2, §3
# T1 sequence (P11362 22-822): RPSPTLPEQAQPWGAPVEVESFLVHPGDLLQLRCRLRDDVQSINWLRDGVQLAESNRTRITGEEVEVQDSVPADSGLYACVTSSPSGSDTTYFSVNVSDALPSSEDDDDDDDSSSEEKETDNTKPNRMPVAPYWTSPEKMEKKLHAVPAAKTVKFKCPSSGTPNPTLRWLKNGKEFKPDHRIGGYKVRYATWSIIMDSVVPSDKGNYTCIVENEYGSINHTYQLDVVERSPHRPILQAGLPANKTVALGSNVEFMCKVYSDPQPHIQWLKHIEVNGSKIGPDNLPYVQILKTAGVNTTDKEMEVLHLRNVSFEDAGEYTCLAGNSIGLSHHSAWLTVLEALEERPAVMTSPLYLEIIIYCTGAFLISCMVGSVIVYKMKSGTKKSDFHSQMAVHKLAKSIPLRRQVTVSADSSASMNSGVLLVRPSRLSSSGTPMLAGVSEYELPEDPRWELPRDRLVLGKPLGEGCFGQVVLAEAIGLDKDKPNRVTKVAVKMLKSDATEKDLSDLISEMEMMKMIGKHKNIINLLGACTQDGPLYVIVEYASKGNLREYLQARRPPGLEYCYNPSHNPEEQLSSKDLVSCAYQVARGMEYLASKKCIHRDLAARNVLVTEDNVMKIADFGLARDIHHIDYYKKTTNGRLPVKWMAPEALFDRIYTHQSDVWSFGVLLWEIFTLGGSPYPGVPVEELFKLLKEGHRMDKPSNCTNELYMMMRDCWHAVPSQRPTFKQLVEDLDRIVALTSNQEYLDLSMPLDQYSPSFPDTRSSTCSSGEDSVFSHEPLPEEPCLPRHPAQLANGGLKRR
structure (smiles),measurement,setting,value
COc1ccc(Cl)c(Cc2c[nH]c3ncc(-c4cnn(C5CCNCC5)c4)nc23)c1Cl [Embodiment 7],IC50,human FGFR1,85.9 nM
same,IC50,human FGFR4,> 10000 nM
same,IC50,human c-Met,41.5 nM
COc1cc(OC)c(F)c(Cc2c[nH]c3ncc(-c4cnn(C5CCNCC5)c4)cc23)c1F [Embodiment 9],IC50,human FGFR1,0.8 nM
same,IC50,human FGFR4,18.3 nM
same,IC50,human c-Met,11.3 nM
COc1cc(OC)c(F)c(Cc2c[nH]c3ncc(-c4cnn(C5CCN(CCO)CC5)c4)cc23)c1F [Embodiment 16],IC50,human FGFR1,0.73 nM
same,IC50,human FGFR4,16.1 nM
same,IC50,human c-Met,10.5 nM
COc1cc(OC)c(F)c(Cc2c[nH]c3ncc(-c4cnn(CCN(C)C)c4)cc23)c1F [Hydrochloride of embodiment 28],IC50,human FGFR1,0.55 nM
same,IC50,human FGFR4,20.2 nM
same,IC50,human c-Met,25.9 nM
COc1cc(OC)c(F)c(Cc2c[nH]c3ncc(-c4c(C)nn(CCO)c4C)cc23)c1F [Hydrochloride of embodiment 34],IC50,human FGFR1,8.9 nM
same,IC50,human FGFR4,126 nM
same,IC50,human c-Met,86.7 nM
CCN1CCC(n2ncc(-c3cnc4[nH]cc(Cc5c(F)c(OC)cc(OC)c5F)c4c3)c2Cl)CC1 [Hydrochloride of embodiment 40],IC50,human FGFR1,0.4 nM
same,IC50,human FGFR4,21.5 nM
same,IC50,human c-Met,14.6 nM
CCN1CCC(n2cc(-c3cnc4[nH]cc(Cc5c(F)c(OC)cc(OC)c5F)c4c3)c(C#N)n2)CC1 [Hydrochloride of embodiment 42],IC50,human FGFR1,1.4 nM
same,IC50,human FGFR4,10.2 nM
same,IC50,human c-Met,7.1 nM
COc1cc(OC)c(F)c(Cc2c[nH]c3ncc(-c4cnn(CCO)c4)cc23)c1F [Hydrochloride of embodiment 46],IC50,human FGFR1,0.42 nM
same,IC50,human FGFR4,2.9 nM
same,IC50,human c-Met,8.9 nM
COc1cc(OC)c(F)c(Cc2c[nH]c3ncc(-c4ccc(C5(C#N)CCNCC5)cc4)cc23)c1F [Hydrochloride of embodiment 57],IC50,human FGFR1,1.1 nM
same,IC50,human FGFR4,21.4 nM
same,IC50,human c-Met,49.4 nM
COc1cc(OC)c(F)c(Cc2c[nH]c3ncc(-c4cncc(C5=CCNCC5)n4)cc23)c1F [Hydrochloride of embodiment 63],IC50,human FGFR1,9.41 nM
CCN(CC)CCn1cc(-c2cnc3[nH]cc(Cc4c(F)c(OC)cc(OC)c4F)c3c2)cn1 [Hydrochloride of embodiment 69],IC50,human FGFR1,0.6 nM
same,IC50,human FGFR4,8.4 nM
same,IC50,human c-Met,35.3 nM
COCCNCCn1cc(-c2cnc3[nH]cc(Cc4c(F)c(OC)cc(OC)c4F)c3c2)cn1 [Hydrochloride of embodiment 70],IC50,human FGFR1,0.5 nM
same,IC50,human FGFR4,5 nM
same,IC50,human c-Met,31.4 nM
COc1cc(OC)c(F)c(Cc2c[nH]c3ncc(-c4cnn(CC(O)CNC(C)C)c4)cc23)c1F (stereo not drawn) [Hydrochloride of embodiment 71],IC50,human FGFR1,0.4 nM
same,IC50,human FGFR4,4.9 nM
same,IC50,human c-Met,32.8 nM
COc1cc(OC)c(F)c(Cc2c[nH]c3ncc(-c4cnn(CC(O)CO)c4)cc23)c1F (stereo not drawn) [Hydrochloride of embodiment 73],IC50,human FGFR1,0.6 nM
same,IC50,human FGFR4,2.5 nM
same,IC50,human c-Met,32.4 nM
CCN1CCC(n2cc(-c3cnc4[nH]cc(Cc5c(F)c(OC)cc(OC)c5F)c4n3)cn2)CC1 [Trifluoroacetate salt of embodiment 6],IC50,human FGFR1,0.04 nM
same,IC50,human FGFR4,15.2 nM
same,IC50,human c-Met,74.3 nM
COc1cc(OC)c(F)c(Cc2c[nH]c3ncc(-c4cnn(CCO)c4)nc23)c1F [Trifluoroacetate salt of embodiment 8],IC50,human FGFR1,0.43 nM
same,IC50,human FGFR4,20.7 nM
same,IC50,human c-Met,496 nM
COc1cc(Cc2c[nH]c3ncc(-c4cnn(C5CCNCC5)c4)cc23)cc(OC)c1 [Trifluoroacetate salt of embodiment 11],IC50,human FGFR1,17.1 nM
same,IC50,human FGFR4,550 nM
CCN1CCC(n2cc(-c3cnc4[nH]cc(Cc5c(F)c(OC)cc(OC)c5F)c4c3)cn2)CC1 [Trifluoroacetate salt of embodiment 12],IC50,human FGFR4,36 nM
same,IC50,human c-Met,3.17 nM
COc1cc(OC)c(F)c(Cc2c[nH]c3ncc(-c4cnn(C5CCN(C)CC5)c4)cc23)c1F [Trifluoroacetate salt of embodiment 13],IC50,human FGFR1,0.04 nM
same,IC50,human FGFR4,9 nM
same,IC50,human c-Met,7.62 nM
COc1cc(OC)c(F)c(Cc2c[nH]c3ncc(-c4cnn(C5CCN(C(C)C)CC5)c4)cc23)c1F [Trifluoroacetate salt of embodiment 14],IC50,human FGFR1,1.34 nM
same,IC50,human FGFR4,27.5 nM
same,IC50,human c-Met,14 nM
COc1cc(OC)c(F)c(Cc2c[nH]c3ncc(-c4cnn(C5CCN(C6COC6)CC5)c4)cc23)c1F [Trifluoroacetate salt of embodiment 15],IC50,human FGFR1,1.94 nM
same,IC50,human FGFR4,25.9 nM
same,IC50,human c-Met,16 nM
COc1cc(OC)c(F)c(Cc2c[nH]c3ncc(-c4cnn(C5CCN(C(C)=O)CC5)c4)cc23)c1F [Trifluoroacetate salt of embodiment 17],IC50,human FGFR4,7.5 nM
same,IC50,human c-Met,11.6 nM
COc1cc(OC)c(F)c(Cc2c[nH]c3ncc(-c4cnn(C5CCN(S(C)(=O)=O)CC5)c4)cc23)c1F [Trifluoroacetate salt of embodiment 18],IC50,human FGFR4,29.7 nM
same,IC50,human c-Met,16.1 nM
COc1ccc(F)c(Cc2c[nH]c3ncc(-c4cnn(C5CCNCC5)c4)cc23)c1F [Trifluoroacetate salt of embodiment 19],IC50,human FGFR1,13.7 nM
same,IC50,human FGFR4,262 nM
same,IC50,human c-Met,5.7 nM
CNC(=O)c1cc(Cc2c[nH]c3ncc(-c4cnn(C5CCNCC5)c4)cc23)c(Cl)c(OC)c1 [Trifluoroacetate salt of embodiment 20],IC50,human FGFR4,158 nM
same,IC50,human c-Met,12 nM
COc1cc(OC)c(F)c(CC2=CN=C3N=CC(c4cnn(CCN5CCOCC5)c4)=CC23)c1F (stereo not drawn) [Trifluoroacetate salt of embodiment 21],IC50,human FGFR1,2 nM
same,IC50,human FGFR4,25.2 nM
same,IC50,human c-Met,55.9 nM
COc1cc(OC)c(F)c(Cc2c[nH]c3ncc(-c4cnn(C5CCOCC5)c4)cc23)c1F [Trifluoroacetate salt of embodiment 22],IC50,human FGFR4,29.2 nM
same,IC50,human c-Met,23.8 nM
COc1cc(OC)c(F)c(Cc2c[nH]c3ncc(-c4cnn(C5CN(S(C)(=O)=O)C5)c4)cc23)c1F [Trifluoroacetate salt of embodiment 23],IC50,human FGFR1,4.85 nM
same,IC50,human FGFR4,43.9 nM
same,IC50,human c-Met,21 nM
COc1cc(OC)c(F)c(Cc2c[nH]c3ncc(-c4cnn(C5CNC5)c4)cc23)c1F [Trifluoroacetate salt of embodiment 24],IC50,human FGFR4,252 nM
same,IC50,human c-Met,76.5 nM
CCN1CC(n2cc(-c3cnc4[nH]cc(Cc5c(F)c(OC)cc(OC)c5F)c4c3)cn2)C1 [Trifluoroacetate salt of embodiment 25],IC50,human FGFR1,2.1 nM
same,IC50,human FGFR4,31.9 nM
same,IC50,human c-Met,16.9 nM
COc1cc(OC)c(F)c(Cc2c[nH]c3ncc(-c4cnn(C5CN(C(C)=O)C5)c4)cc23)c1F [Trifluoroacetate salt of embodiment 26],IC50,human FGFR4,35.3 nM
same,IC50,human c-Met,13.8 nM
COc1cc(OC)c(F)c(Cc2c[nH]c3ncc(-c4cnn(C5CN(CCO)C5)c4)cc23)c1F [Trifluoroacetate salt of embodiment 27],IC50,human FGFR4,13.1 nM
same,IC50,human c-Met,6.7 nM
COc1cc(OC)c(F)c(Cc2c[nH]c3ncc(-c4cnn(CC5CNC5)c4)cc23)c1F [Trifluoroacetate salt of embodiment 29],IC50,human FGFR1,1.9 nM
same,IC50,human FGFR4,24.6 nM
same,IC50,human c-Met,35.6 nM
COc1cc(OC)c(F)c(Cc2c[nH]c3ncc(-c4cnn(S(C)(=O)=O)c4)cc23)c1F [Trifluoroacetate salt of embodiment 30],IC50,human FGFR1,2.1 nM
same,IC50,human FGFR4,28.2 nM
same,IC50,human c-Met,169 nM
COc1cc(OC)c(F)c(Cc2c[nH]c3ncc(-c4cnn(C5CCC(O)CC5)c4)cc23)c1F (stereo not drawn) [Trifluoroacetate salt of embodiment 31],IC50,human FGFR1,0.9 nM
same,IC50,human FGFR4,9.9 nM
same,IC50,human c-Met,6.9 nM
COc1cc(OC)c(F)c(Cc2c[nH]c3ncc(-c4cn(C5CCN(C)CC5)nc4C)cc23)c1F [Trifluoroacetate salt of embodiment 35],IC50,human FGFR4,23.5 nM
same,IC50,human c-Met,14 nM
COc1cc(OC)c(F)c(Cc2c[nH]c3ncc(-c4cn(C)nc4C#N)cc23)c1F [Trifluoroacetate salt of embodiment 44],IC50,human FGFR4,32.3 nM
same,IC50,human c-Met,191 nM
COc1cc(OC)c(Cl)c(Cc2c[nH]c3ncc(-c4cnn(C5CCNCC5)c4)cc23)c1Cl [Trifluoroacetate salt of embodiment 49],IC50,human FGFR4,529 nM
same,IC50,human c-Met,8.8 nM
COc1cc(OC)c(F)c(Cc2c[nH]c3ncc(-c4ccc(N5CCN(C)CC5)nc4)cc23)c1F [Trifluoroacetate salt of embodiment 62],IC50,human FGFR4,8.6 nM
same,IC50,human c-Met,132 nM

# — patent US12312347B2, “Azaindole derivative and use thereof as FGFR and C-Met inhibitor” (Wuxi Life Fountain Biotech Co., Ltd, priority 2018, dated 2025)
